Key:
[1] = Pharmacokinetic assay in rats; format: in vivo, SD rats; conditions: rat; for AUC(0-inf) / AUC(0-t) / C0 / MRT inf / Vd / Cmax / Tmax: plasma; for MRT inf: read-out: MRT(0-∞); for Vd: read-out: Vz
Description: In this experimental example, the pharmacokinetic behavior of the test compounds after administration by intravenous injection (IV) and oral gavage (PO) in SD rats was tested.
On the day of administration, rats were weighed for actual body weight, and the administration volume was calculated. Each compound was tested in two groups with 3 rats in each group; one group was subjected to administration by single intravenous injection, and the other group was subjected to administration by single oral gavage. The whole blood samples were collected via the jugular vein at prescribed time points (0.25 h, 0.5 h, 1 h, 2 h, 4 h, 8 h, and 24 h after administration). After the blood sample collection, the samples were immediately transferred to labeled commercial sample tubes containing K2-EDTA (0.85-1.15 mg), followed by centrifugation (3200× g, 4 °C, 10 min) and plasma collection. The plasma was transferred to a pre-cooled centrifuge tube, frozen in dry ice, and then stored in an ultra-low temperature freezer at -60 °C or lower until the LC-MS/MS analysis was performed.
Plasma concentrations were determined by the LC-MS/MS method. Plasma drug concentration data for the compounds were processed using a non-compartmental model in the WinNonlin Version 6.3 (Pharsight, Mountain View, CA) pharmacokinetic software. The relevant pharmacokinetic parameters were calculated by a linear-log trapezoidal method.

[2] = Pharmacokinetic assay in mice; format: in vivo, Balb/c mice; conditions: mouse; for F: PO 10mpk vs IV 2mpk; for AUC(0-inf) / AUC(0-t) / C0 / MRT inf / Vd / Cmax / Tmax: plasma; for MRT inf: read-out: MRT(0-∞); for Vd: read-out: Vz
Summary of the method: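 Male Balb/c mice (6–8 weeks) were dosed 2 mg/kg IV by tail vein or 10 or 100 mg/kg by oral gavage, with the PO group fasted overnight. Orbital blood was taken from 0.083 (IV only) to 24 h for plasma. Cmax, Tmax, CL, Vss, AUC, t1/2 and bioavailability were derived from concentration–time data.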

[3] = test system: HCT-116; assay: CCK8 proliferation inhibition, HCT-116; format: cell-based; conditions: Homo sapiens, 192 h, CCK8, 8 days after drug treatment
[4] = test system: HCT-116-MTAP^-/-; assay: CCK8 proliferation inhibition, HCT-116-MTAP^-/-; format: cell-based; conditions: Homo sapiens, 192 h; HCT-116-MTAP^-/- (MTAP-deficient); CCK8, 8 days after drug treatment
[5] = test system: SDMA; assay: SDMA Inhibition Assay in A549 cells; format: cell-based; conditions: Homo sapiens, A549, 96 hours
[6] = test system: SDMA; assay: SDMA Inhibition Assay in HCT-116 cells; format: cell-based; conditions: Homo sapiens, HCT-116, 96 hours
[7] = test system: A549; assay: CCK8 proliferation inhibition, A549; format: cell-based; conditions: Homo sapiens, 192 h, CCK8, 8 days after drug treatment
[8] = PO 10mpk (IV reference 2mpk; 0.2mpk for I-7)
[9] = male, Balb/c, 10 mg/kg, PO 10mpk

Compound Cn1ncc2c(N)nc3cc(F)c(C(=O)N4CCOC[C@@H]4c4ccc5c(c4)OC(F)(F)O5)cc3c21 [Example I-7] has an AUC(0-inf) ([1]; 0.2 mg/kg, IV 0.2mpk) of 0.22 µM·h, an AUC(0-t) ([1]; 0.2 mg/kg, IV 0.2mpk) of 0.148 µM·h and a C0 ([1]; 0.2 mg/kg, IV 0.2mpk) of 176 nM. For the same compound, the MRT inf ([1]; 0.2 mg/kg, IV 0.2mpk) was 1.8 h, the Vd ([1]; 0.2 mg/kg, IV 0.2mpk) was 3.5 L/kg and the AUC(0-inf) ([1]; 10 mg/kg, PO 10mpk) was 9.6 µM·h. For the same compound, the AUC(0-t) ([1]; 10 mg/kg, PO 10mpk) was 6.58 µM·h, the Cmax ([1]; 10 mg/kg, PO 10mpk) was 781 nM and the Tmax ([1]; 10 mg/kg, PO 10mpk) was 4.3 h. The MRT inf ([1]; 10 mg/kg, PO 10mpk) was 9.9 h, the CLz ([1]; IV 0.2mpk) was 31.7 mL/min/kg and the “R_AUC(t/∞)” value ([1]; IV 0.2mpk) was 67%. The t1/2z ([1]; IV 0.2mpk) was 1.3 h, the “R_AUC(t/∞)” value ([1]; PO 10mpk) was 76.9% and the t1/2z ([1]; PO 10mpk) was 8.1 h. For the same compound, the F [1, 8] was 89.1%, the CLz ([2]; IV 2mpk) was 13 mL/min/kg and the “R_AUC(t/∞)” value ([2]; IV 2mpk) was 95.1%. For the same compound, the t1/2z ([2]; IV 2mpk) was 1.9 h, the “R_AUC(t/∞)” value ([2]; PO 10mpk) was 97.1% and the t1/2z ([2]; PO 10mpk) was 4.9 h. It also gave an F [2] of 159.9%, an AUC(0-inf) ([2]; 2 mg/kg, IV 2mpk) of 4.89 µM·h and an AUC(0-t) ([2]; 2 mg/kg, IV 2mpk) of 4.65 µM·h. The C0 ([2]; 2 mg/kg, IV 2mpk) was 2620 nM, the MRT inf ([2]; 2 mg/kg, IV 2mpk) was 2.7 h and the Vd ([2]; 2 mg/kg, IV 2mpk) was 2.3 L/kg. For the same compound, the AUC(0-inf) ([2]; 10 mg/kg, PO 10mpk) was 39.1 µM·h, the AUC(0-t) ([2]; 10 mg/kg, PO 10mpk) was 38 µM·h and the Cmax ([2]; 10 mg/kg, PO 10mpk) was 5010 nM. For the same compound, the Tmax ([2]; 10 mg/kg, PO 10mpk) was 2 h, the MRT inf ([2]; 10 mg/kg, PO 10mpk) was 6.1 h and the EC50 [3] was 1160 nM. For the same compound, the EC50 [4] was 6.6 nM, the EC50 [5] was 1.2 nM and the EC50 [6] was 181 nM. For the same compound, the EC50 [7] was 34.7 nM.
In the case of Cn1ncc2c(N)nc3cc(F)c(C(=O)N(Cc4ccc5c(c4)OC(F)(F)O5)C4CC4)cc3c21 [Example I-16], the AUC(0-inf) ([1]; SD, 2 mg/kg, IV 2mpk) is reported as 2.43 µM·h, the AUC(0-t) ([1]; SD, 2 mg/kg, IV 2mpk) is reported as 2.15 µM·h and the C0 ([1]; SD, 2 mg/kg, IV 2mpk) is reported as 1140 nM. The MRT inf ([1]; SD, 2 mg/kg, IV 2mpk) was 3.1 h, the Vd ([1]; SD, 2 mg/kg, IV 2mpk) was 5.6 L/kg and the AUC(0-inf) ([1]; SD, 10 mg/kg, PO 10mpk) was 13.2 µM·h. It also gave an AUC(0-t) ([1]; SD, 10 mg/kg, PO 10mpk) of 9.06 µM·h, a Cmax ([1]; SD, 10 mg/kg, PO 10mpk) of 808 nM and a Tmax ([1]; SD, 10 mg/kg, PO 10mpk) of 4.7 h. The MRT inf ([1]; SD, 10 mg/kg, PO 10mpk) was 13.2 h, the CLz ([1]; IV 2mpk) was 31.7 mL/min/kg and the “R_AUC(t/∞)” value ([1]; IV 2mpk) was 88.8%. The t1/2z ([1]; IV 2mpk) was 2.3 h, the “R_AUC(t/∞)” value ([1]; PO 10mpk) was 71.5% and the t1/2z ([1]; PO 10mpk) was 9.3 h. It also gave an F [1, 8] of 84%, an AUC(0-inf) ([2]; male, Balb/c, 2 mg/kg, IV 2mpk) of 6.37 µM·h and an AUC(0-t) ([2]; male, Balb/c, 2 mg/kg, IV 2mpk) of 6.24 µM·h. The C0 ([2]; male, Balb/c, 2 mg/kg, IV 2mpk) was 1960 nM, the MRT inf ([2]; male, Balb/c, 2 mg/kg, IV 2mpk) was 4.9 h and the Vd ([2]; male, Balb/c, 2 mg/kg, IV 2mpk) was 4.3 L/kg. The AUC(0-inf) [2, 9] was 34.5 µM·h, the AUC(0-t) [2, 9] was 34.4 µM·h and the Cmax [2, 9] was 4760 nM. The Tmax [2, 9] was 1 h, the MRT inf [2, 9] was 5.2 h and the CLz ([2]; IV 2mpk) was 12 mL/min/kg. The “R_AUC(t/∞)” value ([2]; IV 2mpk) was 97.9%, the t1/2z ([2]; IV 2mpk) was 4.4 h and the “R_AUC(t/∞)” value ([2]; PO 10mpk) was 99.6%. The t1/2z ([2]; PO 10mpk) was 3.1 h, the F [2] was 108% and the EC50 [3] was 928 nM. For the same compound, the EC50 [4] was 3.8 nM, the EC50 [5] was 0.8 nM and the EC50 [6] was 201 nM. It also gave an EC50 [7] of 24.6 nM.
For Cn1ncc2c(N)nc3cnc(C(=O)N4CCOC[C@@H]4c4ccc5c(c4)OC(F)(F)O5)cc3c21 [Example I-38], the AUC(0-t) ([1]; 2 mg/kg, IV 2mpk) was 4 µM·h, the AUC(0-t) ([1]; 100 mg/kg, PO 100mpk) was 199 µM·h and the Cmax ([1]; 100 mg/kg, PO 100mpk) was 10200 nM. It also gave an F ([1]; PO 100mpk vs IV 2 mpk) of 99%, an AUC(0-t) ([2]; 2 mg/kg, IV 2mpk) of 7.87 µM·h and an AUC(0-t) ([2]; 100 mg/kg, PO 100mpk) of 710 µM·h. For the same compound, the Cmax ([2]; 100 mg/kg, PO 100mpk) was 52100 nM, the EC50 [3] was 313 nM and the EC50 [4] was 7.4 nM. It also gave an EC50 [5] of 1.7 nM, an EC50 [6] of 147 nM and an EC50 [7] of 53.7 nM.

Reference: patent publication EP4700025A1, “AMIDE COMPOUND, PHARMACEUTICAL COMPOSITION COMPRISING SAME, AND USE THEREOF” (Suzhou Genhouse Bio Co., Ltd., priority 2023, dated 2024)
